From ChEMBL document CHEMBL4732126, “Design, synthesis, and biodistribution studies of new analogues of marine alkaloids: Potent in vitro and in vivo fungicidal agents against Candida spp” (Eur J Med Chem, 2021)
Values after ≈ are worked out from the molar mass of the structure shown. Active and inactive are the calls of the source. The calls are words filed in the database; no cut-off is given here.

Columns and labels:
[1] = test system: Candida albicans; assay: Antifungal activity against Candida albicans isolate 1 assessed as reduction in fungal growth incubated for 48 hrs by broth microdilution method; type: functional
[2] = test system: Candida albicans; assay: Antifungal activity against Candida albicans isolate 2 assessed as reduction in fungal growth incubated for 48 hrs by broth microdilution method; type: functional
[3] = test system: Candida albicans; assay: Antifungal activity against Candida albicans isolate 3 assessed as reduction in fungal growth incubated for 48 hrs by broth microdilution method; type: functional
[4] = test system: Candida albicans; assay: Antifungal activity against Candida albicans isolate 4 assessed as reduction in fungal growth incubated for 48 hrs by broth microdilution method; type: functional
[5] = test system: Candida albicans; assay: Antifungal activity against Candida albicans isolate 5 assessed as reduction in fungal growth incubated for 48 hrs by broth microdilution method; type: functional
[6] = test system: Candida albicans; assay: Fungicidal activity against Candida albicans isolate 1 assessed as fungal killing incubated for 48 hrs followed by plating on SD agar plate; type: functional; details: read-out: MFC99.9
[7] = test system: Candida albicans; assay: Fungicidal activity against Candida albicans isolate 2 assessed as fungal killing incubated for 48 hrs followed by plating on SD agar plate; type: functional; details: read-out: MFC99.9
[8] = test system: Candida albicans; assay: Fungicidal activity against Candida albicans isolate 3 assessed as fungal killing incubated for 48 hrs followed by plating on SD agar plate; type: functional; details: read-out: MFC99.9
[9] = test system: Candida albicans; assay: Fungicidal activity against Candida albicans isolate 4 assessed as fungal killing incubated for 48 hrs followed by plating on SD agar plate; type: functional; details: read-out: MFC99.9
[10] = test system: Candida albicans; assay: Fungicidal activity against Candida albicans isolate 5 assessed as fungal killing incubated for 48 hrs followed by plating on SD agar plate; type: functional; details: read-out: MFC99.9
[11] = test system: Candida albicans; assay: Fungicidal activity against Candida albicans ATCC 10231 assessed as reduction in fungal load at 1 ug/ml incubated for 8 hrs followed by inoculation on SD agar plate for 48 hrs by time-kill assay; type: functional, organism-based; details: dose 1.0 µg/ml, time 56.0 hrs
[12] = Toxicity in Swiss mouse assessed as body weight at 1 mg/kg, ip measured after 24 hrs (reference value: 36.25 +/- 0.31 g); type: organism-based; details: in vivo
[13] = Toxicity in Swiss mouse assessed as relative lung weight at 1 mg/kg, ip measured after 24 hrs (reference value: 6.35 +/- 0.68 g); type: organism-based; details: in vivo
[14] = Toxicity in Swiss mouse assessed as relative kidney weight at 1 mg/kg, ip measured after 24 hrs (reference value: 14.91 +/- 0.99 g); type: organism-based; details: in vivo
[15] = Toxicity in Swiss mouse assessed as relative spleen weight at 1 mg/kg, ip measured after 24 hrs (reference value: 4.02 +/- 0.59 g); type: organism-based; details: in vivo
[16] = Toxicity in Swiss mouse assessed as relative heart weight at 1 mg/kg, ip measured after 24 hrs (reference value: 4.75 +/- 0.60 g); type: organism-based; details: in vivo
[17] = Toxicity in Swiss mouse assessed as relative liver weight at 1 mg/kg, ip measured after 24 hrs (reference value: 49.42 +/- 7.17 g); type: organism-based; details: in vivo
[18] = test system: Candida albicans; assay: In vivo antifungal activity in Swiss mouse infected with Candida albicans ATCC 10231 assessed as reduction in fungal load in liver at 1 mg/kg, ip administered at 2, 24 and 48 hrs post-infection and measured per gm of organ at 24 hrs post-last dose (reference value: 1.80); type: functional; details: time 72.0 hrs
[19] = test system: Candida albicans; assay: In vivo antifungal activity in Swiss mouse infected with Candida albicans ATCC 10231 assessed as reduction in fungal load in kidney at 1 mg/kg, ip administered at 2, 24 and 48 hrs post-infection and measured per gm of organ at 24 hrs post-last dose (reference value: 2.47); type: functional; details: time 72.0 hrs
[20] = test system: Candida albicans; assay: In vivo antifungal activity in Swiss mouse infected with Candida albicans ATCC 10231 assessed as reduction in fungal load in spleen at 1 mg/kg, ip administered at 2, 24 and 48 hrs post-infection and measured per gm of organ at 24 hrs post-last dose (reference value: 2.34); type: functional; details: time 72.0 hrs
[21] = test system: Candida albicans; assay: In vivo antifungal activity in Swiss mouse infected with Candida albicans ATCC 10231 assessed as reduction in fungal load in liver at 10 mg/kg, ip administered at 2, 24 and 48 hrs post-infection and measured per gm of organ at 24 hrs post-last dose (reference value: 1.80); type: functional; details: time 72 hrs
[22] = test system: Candida albicans; assay: In vivo antifungal activity in Swiss mouse infected with Candida albicans ATCC 10231 assessed as reduction in fungal load in kidney at 10 mg/kg, ip administered at 2, 24 and 48 hrs post-infection and measured per gm of organ at 24 hrs post-last dose (reference value: 2.47); type: functional, organism-based; details: time 72.0 hrs
[23] = test system: Candida albicans; assay: In vivo antifungal activity in Swiss mouse infected with Candida albicans ATCC 10231 assessed as reduction in fungal load in spleen at 10 mg/kg, ip administered at 2, 24 and 48 hrs post-infection and measured per gm of organ at 24 hrs post-last dose (reference value: 2.34); type: functional, organism-based; details: time 72.0 hrs
[24] = Toxicity in iv dosed mouse measured for 24 hrs; type: organism-based; details: in vivo
[25] = Toxicity in po dosed mouse measured for 24 hrs; type: organism-based; details: in vivo

SMILES: C[C@@H]1[C@H](O)[C@@H](C)/C=C/C=C/C=C/C=C/C=C/C=C/C=C/[C@H](O[C@@H]2O[C@H](C)[C@@H](O)[C@H](N)[C@@H]2O)C[C@@H]2O[C@](O)(C[C@@H](O)C[C@@H](O)[C@H](O)CC[C@@H](O)C[C@@H](O)CC(=O)O[C@H]1C)C[C@H](O)[C@H]2C(=O)O [AMPHOTERICIN B]
- MIC [1]: 39 µg/mL (≈ 42.2 µM)
- MIC [2]: 39 µg/mL (≈ 42.2 µM)
- MIC [3]: 39 µg/mL (≈ 42.2 µM)
- MIC [4]: 156 µg/mL (≈ 169 µM)
- MIC [5]: 39 µg/mL (≈ 42.2 µM)
- MFC [6]: 78.1 µg/mL (≈ 84.5 µM)
- MFC [7]: 312 µg/mL (≈ 338 µM)
- MFC [8]: 39 µg/mL (≈ 42.2 µM)
- MFC [9]: 625 µg/mL (≈ 676 µM)
- MFC [10]: 78.1 µg/mL (≈ 84.5 µM)
- Activity [11]: Active
- Activity [12]: 31.12 g
- Activity [13]: 6.51 g
- Activity [14]: 15.56 g
- Activity [15]: 4.14 g
- Activity [16]: 5.94 g
- Activity [17]: 49.34 g
- Activity [18]: Active
- Activity [19]: Active
- Activity [20]: Active
- Activity [21]: 1.51 log10CFU
- Activity [22]: Active
- Activity [23]: Active

SMILES: COc1cc2c(cc1OC)[C@@H]1N(C)Cc3c(cc(OC)c4c3OCO4)[C@]1(C)[C@H](O)C2
- LD50 at 24 h [24]: 41.6 mg/kg
- LD50 at 24 h [25]: 800 mg/kg
